Experimental data published in the supplement of paper PMC11061612.

Legend:
Experiment in all cases: Bliss excess, mean over the matrix (fraction); higher = more synergy
[1] = system: 8-MG-BA (Glioblastoma)
How it was run: (§1)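 Cell lines in DMEM/F12 or RPMI with 10% FBS were plated in 1536-well plates, held 24 hours at 37°C, 5% CO2, then given two-drug dose matrices for 72 hours (DMSO typically 0.2%). Viability was read by CellTiter-Glo 2.0 luminescence and scaled as inhibition from 0 (vehicle wells) to 1 (blank wells). Combination Emax is the second-highest inhibition in the matrix; Bliss excess is observed combination effect minus expected EA + EB − EA·EB, EA and EB being single-agent effects.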

[2] = system: A3-KAW (B-Cell Non-Hodgkin's Lymphoma)
How it was run: as §1

[3] = system: A549 (Lung Adenocarcinoma)
How it was run: as §1

[4] = system: CAS-1 (Glioblastoma)
How it was run: as §1

[5] = system: CCK-81 (Colorectal Carcinoma)
How it was run: as §1

[6] = system: ECC10 (Gastric Carcinoma)
How it was run: as §1

[7] = system: FU97 (Gastric Carcinoma)
How it was run: as §1

[8] = system: HCC1954 (Breast Carcinoma)
How it was run: as §1

[9] = system: Hs-445 (Non-Cancerous)
How it was run: as §1

[10] = system: JSC-1 (B-Cell Non-Hodgkin's Lymphoma)
How it was run: as §1

[11] = system: MDST8 (Colorectal Carcinoma)
How it was run: as §1

[12] = system: NCI-H1581 (Non-Small Cell Lung Carcinoma)
How it was run: as §1

[13] = system: NCI-H2141 (Small Cell Lung Carcinoma)
How it was run: as §1

[14] = system: NCI-H2591 (Mesothelioma)
How it was run: as §1

[15] = system: NY (Osteosarcoma)
How it was run: as §1

[16] = system: SK-MG-1 (Low Grade Glioma)
How it was run: as §1

[17] = system: TT (Thyroid Gland Carcinoma)
How it was run: as §1

[18] = system: TT2609-C02 (Thyroid Gland Carcinoma)
How it was run: as §1

[19] = system: U-2-OS (Osteosarcoma)
How it was run: as §1

[20] = system: VCaP (Prostate Carcinoma)
How it was run: as §1

SMILES	Bliss excess [1]	Bliss excess [2]	Bliss excess [3]	Bliss excess [4]	Bliss excess [5]	Bliss excess [6]	Bliss excess [7]	Bliss excess [8]	Bliss excess [9]	Bliss excess [10]	Bliss excess [11]	Bliss excess [12]	Bliss excess [13]	Bliss excess [14]	Bliss excess [15]	Bliss excess [16]	Bliss excess [17]	Bliss excess [18]	Bliss excess [19]	Bliss excess [20]
CCN(CCO)CCCOc1ccc2c(Nc3cc(CC(=O)Nc4cccc(F)c4)[nH]n3)ncnc2c1 [AZD2811] + C=CCn1c(=O)c2cnc(Nc3ccc(N4CCN(C)CC4)cc3)nc2n1-c1cccc(C(C)(C)O)n1 [AZD1775] (first compound max 1 µM, partner max 1 µM)	0.0299	0.0539	0.015	0.032	-0.037	-0.0021	-0.0289	-0.0269	-0.004	-0.0038	0.064	0.154	-0.0082	0.0107	-0.0363	-0.0121	-0.0155	-0.0295	-0.0039	-0.0369
CCN(CCO)CCCOc1ccc2c(Nc3cc(CC(=O)Nc4cccc(F)c4)[nH]n3)ncnc2c1 [AZD2811] + C[C@@H]1COCCN1C2=NC(=NC(=C2)C3(CC3)[S@](=N)(=O)C)C4=C5C=CNC5=NC=C4 [AZD6738] (first compound max 1 µM, 7x7, partner max 10 µM)	-0.0212	-0.0417	-0.106	-0.0818	-0.0388	-0.0454	-0.0795	-0.0263	-0.01	-0.0495	-0.0174	-0.0438	-0.0873	-0.0338	-0.0508	-0.0271	-0.0905	-0.0361	-0.0297	-0.0864
CCN(CCO)CCCOc1ccc2c(Nc3cc(CC(=O)Nc4cccc(F)c4)[nH]n3)ncnc2c1 [AZD2811] + O=C(c1cc(Cc2n[nH]c(=O)c3ccccc23)ccc1F)N1CCN(C(=O)C2CC2)CC1 [Olaparib] (first compound max 1 µM, 7x7, partner max 10 µM)	0.0327	0.0053	-0.0061	-0.0608	0.032	-0.107	-0.0269	-0.0023	0.0459	0.0145	0.0271	-0.0058	-0.0557	-0.0332	-0.0339	0.0331	-0.0596	0.0022	0.0112	0.0014
CN(CCO)CC[C@H](CSc1ccccc1)Nc1ccc(S(=O)(=O)NC(=O)c2ccc(N3CCC([C@@H](O)c4ccccc4-c4ccc(Cl)cc4)CC3)cc2)cc1S(=O)(=O)C(F)(F)F [AZD4320] + C1CN(CCC1(C(=O)N[C@@H](CCO)C2=CC=C(C=C2)Cl)N)C3=NC=NC4=C3C=CN4 [Capivasertib] (first compound max 1 µM, 7x7, partner max 3 µM)	-0.0071	-0.0211	-0.0589	-0.078	-0.0258	-0.0312	0.0069	0.0377	0.0455	-0.0187	-0.0482	-0.0143	-0.027	-0.0455	-0.0277	-0.048	-0.0456	-0.0582	-0.0609	0.0013
CN(CCO)CC[C@H](CSc1ccccc1)Nc1ccc(S(=O)(=O)NC(=O)c2ccc(N3CCC([C@@H](O)c4ccccc4-c4ccc(Cl)cc4)CC3)cc2)cc1S(=O)(=O)C(F)(F)F [AZD4320] + C=CCn1c(=O)c2cnc(Nc3ccc(N4CCN(C)CC4)cc3)nc2n1-c1cccc(C(C)(C)O)n1 [AZD1775] (first compound max 1 µM, partner max 1 µM)	-0.0417	0.0279	-0.0429	0.0261	-0.0198	0.136	-0.0315	0.0823	0.165	-0.0077	0.0362	0.059	0.0423	-0.0701	0.0694	0.064	-0.0048	-0.0244	-0.0059	0.0072
CN(CCO)CC[C@H](CSc1ccccc1)Nc1ccc(S(=O)(=O)NC(=O)c2ccc(N3CCC([C@@H](O)c4ccccc4-c4ccc(Cl)cc4)CC3)cc2)cc1S(=O)(=O)C(F)(F)F [AZD4320] + CCN(CCO)CCCOc1ccc2c(Nc3cc(CC(=O)Nc4cccc(F)c4)[nH]n3)ncnc2c1 [AZD2811] (first compound max 1 µM, 7x7, partner max 1 µM)	0.003	0.0628	-0.149	0.0208	-0.0345	0.0193	-0.0531	0.149	0.175	0.0215	0.0868	0.0584	0.0443	0.0015	-0.0182	0.0981	0.0345	0.0411	0.0076	0.0003
CN(CCO)CC[C@H](CSc1ccccc1)Nc1ccc(S(=O)(=O)NC(=O)c2ccc(N3CCC([C@@H](O)c4ccccc4-c4ccc(Cl)cc4)CC3)cc2)cc1S(=O)(=O)C(F)(F)F [AZD4320] + CN(C)CCCOc1ccc(-c2ccc3ncc4c(c3c2)n(C2CCOCC2)c(=O)n4C)cn1 [AZD0156] (first compound max 1 µM, 7x7, partner max 1 µM)	-0.0146	-0.0197	-0.039	-0.0328	-0.0009	0.0096	-0.0303	0.0526	-0.0732	-0.0076	-0.0419	0.0018	-0.0151	-0.0508	-0.0432	-0.0377	-0.0778	-0.0325	-0.0215	-0.0185
CN(CCO)CC[C@H](CSc1ccccc1)Nc1ccc(S(=O)(=O)NC(=O)c2ccc(N3CCC([C@@H](O)c4ccccc4-c4ccc(Cl)cc4)CC3)cc2)cc1S(=O)(=O)C(F)(F)F [AZD4320] + C[C@@H](Nc1cc(F)cc(F)c1)c1cc(C(=O)N(C)C)cc2c(=O)cc(N3CCOCC3)oc12 [AZD8186] (first compound max 1 µM, 7x7, partner max 3 µM)	-0.0301	0.0229	-0.0964	-0.0831	0.0755	0.0229	0.0471	0.0622	0.0667	0.0639	0.025	0.0052	0.0326	0.0135	-0.005	-0.0189	-0.061	0.0003	0.007	0.0559
CN(CCO)CC[C@H](CSc1ccccc1)Nc1ccc(S(=O)(=O)NC(=O)c2ccc(N3CCC([C@@H](O)c4ccccc4-c4ccc(Cl)cc4)CC3)cc2)cc1S(=O)(=O)C(F)(F)F [AZD4320] + Cc1cc2ncnn2cc1Nc1ncc2c(n1)n(C1CCOCC1)c(=O)n2C [AZD7648] (first compound max 1 µM, 7x7, partner max 10 µM)	-0.0188	0.0296	-0.0263	-0.048	-0.0091	0.025	-0.0375	0.028	0.0079	-0.0113	-0.0283	-0.0158	0.0109	-0.0445	-0.018	-0.0239	-0.0694	-0.0367	-0.0294	-0.0185
CN(CCO)CC[C@H](CSc1ccccc1)Nc1ccc(S(=O)(=O)NC(=O)c2ccc(N3CCC([C@@H](O)c4ccccc4-c4ccc(Cl)cc4)CC3)cc2)cc1S(=O)(=O)C(F)(F)F [AZD4320] + Cn1cnc2c(F)c(Nc3ccc(Br)cc3Cl)c(C(=O)NOCCO)cc21 [Selumetinib] (first compound max 1 µM, 7x7, partner max 3 µM)	0.0614	0.0747	0.0226	-0.054	0.133	0.027	-0.011	0.0665	0.0606	0.0044	0.0763	0.0408	-0.008	0.0309	0.0072	0.102	-0.033	-0.0046	0.0351	0.0322
COc1nnc2ccc(N3CCC(c4ccc(OCCN5CCN(C)C(=O)[C@H]5C)cc4)CC3)nn12 [AZD5153] + C=CCn1c(=O)c2cnc(Nc3ccc(N4CCN(C)CC4)cc3)nc2n1-c1cccc(C(C)(C)O)n1 [AZD1775] (first compound max 1 µM, partner max 1 µM)	-0.0571	-0.0093	-0.0902	-0.0825	-0.0558	-0.0116	0.0072	-0.0383	-0.192	-0.123	-0.0455	-0.0029	-0.021	0.0145	0.0119	-0.0823	-0.0629	-0.0508	-0.0304	-0.0756
COc1nnc2ccc(N3CCC(c4ccc(OCCN5CCN(C)C(=O)[C@H]5C)cc4)CC3)nn12 [AZD5153] + CC1(C)CCC(CN2CCN(c3ccc(C(=O)NS(=O)(=O)c4ccc(NCC5CCOCC5)c([N+](=O)[O-])c4)c(Oc4cnc5[nH]ccc5c4)c3)CC2)=C(c2ccc(Cl)cc2)C1 [Venetoclax] (first compound max 1 µM, 7x7, partner max 1 µM)	-0.0116	-0.0095	-0.0659	-0.0621	-0.054	0.0248	-0.0452	-0.0391	0.0178	-0.0724	-0.0566	-0.115	0.0085	-0.0688	-0.0722	-0.0571	-0.0116	-0.106	-0.0424	-0.0486
COc1nnc2ccc(N3CCC(c4ccc(OCCN5CCN(C)C(=O)[C@H]5C)cc4)CC3)nn12 [AZD5153] + CCN(CCO)CCCOc1ccc2c(Nc3cc(CC(=O)Nc4cccc(F)c4)[nH]n3)ncnc2c1 [AZD2811] (first compound max 1 µM, 7x7, partner max 1 µM)	0.0121	0.0269	-0.0407	-0.0797	-0.0361	-0.103	-0.0048	-0.011	-0.0783	0.0038	0.0761	-0.143	0.0226	-0.0181	-0.0314	-0.0568	-0.0755	-0.076	-0.0044	-0.0345
